From US9060512B2, “Biocide compositions (III)” (Cognis IP Management GmbH, priority 2009, dated 2015)

Key:
[1] = test system: Hemp sesbania (Sesbania exaltata=Bayer Code=SEBEX); experiment: Weed control with glyphosate IPA salt, optionally with adjuvant; format: in vivo
Description: (§1) Two weeds, Velvet leaf (Abutilion theophrasti=Bayer Code: ABUTH) and Hemp sesbania (Sesbania exaltata=Bayer Code=SEBEX) were treated with a suboptimum rate of 270 g a.e./ha glyphosate IPA salt, optionally in the presence of N,N-Dimethyl levulinic acid amide as an adjuvant (spray volume: 200 l/ha) with three replications over a period of 21 days. Assessments took place for SEBEX after 10 and for ABUTH 20 days after treatment. The efficacy of the biocide/adjuvant composition was determined against a control where the number of weeds in a similar untreated area was set to 0%.

[2] = test system: Velvet leaf (Abutilion theophrasti=Bayer Code: ABUTH); experiment: as above; format: in vivo; settings: 270 g/ha glyphosate IPA salt, spray volume 200 l/ha, 20 days after treatment, untreated area = 0%
Description: as §1

SMILES | SEBEX Control (weed control) ([1]; 270 g/ha glyphosate IPA salt, spray volume 200 l/ha, 10 days after treatment, untreated area = 0%) [%-rel.] | ABUTH Control (weed control) [2] [%-rel.] | weed control performance of glyphosate on addition of adjuvant ([1]; summary in words, SEBEX and ABUTH)
CC(C)N.O=C(O)CNCP(=O)(O)O [C3, glyphosate IPA salt] | 50 | 82 | 
CC(=O)CCC(=O)N(C)C [Example 6, Levulinic acid dimethylamide] |  |  | improves the weed control performance of glyphosate significantly
